Data from BindingDB's records for doi:10.3109/14756366.2013.782024 (NAS of Ukraine, 2014).

biological target: Casein kinase II subunit alpha/beta (Homo sapiens, UniProt P68400); test: In Vitro Kinase Assay; conditions: pH 7.5; 30 °C
Protocol: Each test was performed twice in a total reaction volume of 30 μL, containing 6 μg of peptide substrate RRRDDDSDDD (New England Biolabs (UK) Ltd., Herts, UK); 10 units of recombinant human CK2 holoenzyme (New England Biolabs); 50 μM ATP and γ-labeled 32P ATP, diluted to specific activity 100 μCi/mM; CK2 buffer (20mM Tris-HCl, pH 7.5; 50mM KCl; 10mM MgCl2) and inhibitor in varying concentrations. Incubation time was 20 min at 30 °C. The reaction was stopped by adding an equal volume of 10% o-phosphoric acid and the reaction mixture was loaded onto 20-mm discs of phosphocellulose paper (Whatman plc, Kent, UK). Discs were washed three times with 1% o-phosphoric acid solution, air-dried at room temperature, and counted by the Cherenkov method in a beta-counter (LKB). As negative control an equal volume of DMSO was added to the reaction mixture. Quercetin, a known CK2 inhibitor, was used as an inhibition positive control. The final concentration of quercetin was 0.55 μM (which inhibited CK2 activity by 50%).

| Compound | IC50 |
| --- | --- |
| CC1CS(=O)(=O)N(c2ccc(C(=O)Nc3ccc(C(=O)O)c(O)c3)cc2)C1=O (configuration not stated) [2-hydroxy-4-{[4-(4-methyl-1,1-dioxido-3-oxoisothiazolidin-2-yl)benzoyl]amino}benzoic acid (27)] | 19.5 µM |
| CC1CS(=O)(=O)N(c2ccc(C(=O)Nc3ccc(O)c(C(=O)O)c3)cc2)C1=O (configuration not stated) [2-hydroxy-5-{[4-(4-methyl-1,1-dioxido-3-oxoisothiazolidin-2-yl)benzoyl]amino}benzoic acid (25)] | > 30 µM |
| O=C(O)c1cccc(NC(=O)c2ccc(N3C(=O)CCS3(=O)=O)cc2Cl)c1 [3-{[2-chloro-4-(1,1-dioxido-3-oxoisothiazolidin-2-yl)benzoyl]amino}benzoic acid (31)] | 1.5 µM |
| CC1CS(=O)(=O)N(c2ccc(C(=O)Nc3cc(C(=O)O)ccc3O)c(Cl)c2)C1=O (configuration not stated) [3-{[2-chloro-4-(4-methyl-1,1-dioxido-3-oxoisothiazolidin-2-yl)benzoyl]amino}-4-hydroxybenzoic acid (37)] | 3.7 µM |
| CC1CS(=O)(=O)N(c2ccc(C(=O)Nc3cccc(C(=O)O)c3)c(Cl)c2)C1=O (configuration not stated) [3-{[2-chloro-4-(4-methyl-1,1-dioxido-3-oxoisothiazolidin-2-yl)benzoyl]amino}benzoic acid (35)] | 3.6 µM |
| O=C(O)c1cccc(NC(=O)c2ccc(N3C(=O)CCS3(=O)=O)cc2)c1 [3-{[4-(1,1-dioxido-3-oxoisothiazolidin-2-yl)benzoyl]amino}benzoic acid (21)] | 1.8 µM |
| CC1(C)CS(=O)(=O)N(c2ccc(C(=O)Nc3cccc(C(=O)O)c3)cc2)C1=O [3-{[4-(4,4-dimethyl-1,1-dioxido-3-oxoisothiazolidin-2-yl)benzoyl]amino}benzoic acid (28)] | 8 µM |
| CC1CS(=O)(=O)N(c2ccc(C(=O)Nc3cccc(C(=O)O)c3)cc2)C1=O (configuration not stated) [3-{[4-(4-methyl-1,1-dioxido-3-oxoisothiazolidin-2-yl)benzoyl]amino}benzoic acid (24)] | 3.1 µM |
| CC1CS(=O)(=O)N(c2ccc(C(=O)Nc3cc(C(=O)O)ccc3O)cc2)C1=O (configuration not stated) [4-hydroxy-3-{[4-(4-methyl-1,1-dioxido-3-oxoisothiazolidin-2-yl)benzoyl]amino}benzoic acid (26)] | 16 µM |
| O=C(O)c1ccc(NC(=O)c2ccc(N3C(=O)CCS3(=O)=O)cc2Cl)cc1O [4-{[2-chloro-4-(1,1-dioxido-3-oxoisothiazolidin-2-yl)benzoyl]amino}-2-hydroxybenzoic acid (33)] | 3 µM |
| O=C(O)c1ccc(NC(=O)c2ccc(N3C(=O)CCS3(=O)=O)cc2Cl)cc1 [4-{[2-chloro-4-(1,1-dioxido-3-oxoisothiazolidin-2-yl)benzoyl]amino}benzoic acid (34)] | > 30 µM |
| CC1CS(=O)(=O)N(c2ccc(C(=O)Nc3ccc(C(=O)O)c(O)c3)c(Cl)c2)C1=O (configuration not stated) [4-{[2-chloro-4-(4-methyl-1,1-dioxido-3-oxoisothiazolidin-2-yl)benzoyl]amino}-2-hydroxybenzoic acid (38)] | 3.5 µM |
| O=C(Nc1ccc(C(=O)O)c(O)c1)c1ccc(N2C(=O)CCS2(=O)=O)cc1 [4-{[4-(1,1-dioxido-3-oxoisothiazolidin-2-yl)benzoyl]amino}-2-hydroxybenzoic acid (23)] | 14 µM |
| CC1(C)CS(=O)(=O)N(c2ccc(C(=O)Nc3ccc(C(=O)O)c(O)c3)cc2)C1=O [4-{[4-(4,4-dimethyl-1,1-dioxido-3-oxoisothiazolidin-2-yl)benzoyl]amino}-2-hydroxybenzoic acid (30)] | > 30 µM |
| CC1CS(=O)(=O)N(c2ccc(C(=O)NCCCC(=O)O)cc2)C1=O (configuration not stated) [4-{[4-(4-methyl-1,1-dioxido-3-oxoisothiazolidin-2-yl)benzoyl]amino}butanoic acid (42)] | > 30 µM |
| O=C(O)c1cc(NC(=O)c2ccc(N3C(=O)CCS3(=O)=O)cc2Cl)ccc1O [5-{[2-chloro-4-(1,1-dioxido-3-oxoisothiazolidin-2-yl)benzoyl]amino}-2-hydroxybenzoic acid (32)] | 9 µM |
| CC1CS(=O)(=O)N(c2ccc(C(=O)Nc3ccc(O)c(C(=O)O)c3)c(Cl)c2)C1=O (configuration not stated) [5-{[2-chloro-4-(4-methyl-1,1-dioxido-3-oxoisothiazolidin-2-yl)benzoyl]amino}-2-hydroxybenzoic acid (36)] | 6 µM |
| O=C(Nc1ccc(O)c(C(=O)O)c1)c1ccc(N2C(=O)CCS2(=O)=O)cc1 [5-{[4-(1,1-dioxido-3-oxoisothiazolidin-2-yl)benzoyl]amino}-2-hydroxybenzoic acid (22)] | 8 µM |
| CC1(C)CS(=O)(=O)N(c2ccc(C(=O)Nc3ccc(O)c(C(=O)O)c3)cc2)C1=O [5-{[4-(4,4-dimethyl-1,1-dioxido-3-oxoisothiazolidin-2-yl)benzoyl]amino}-2-hydroxybenzoic acid (29)] | > 30 µM |
| COC(=O)c1cc(NC(=O)c2ccc(N3C(=O)C(C)CS3(=O)=O)cc2Cl)ccc1O (configuration not stated) [Methyl 5-{[2-chloro-4-(4-methyl-1,1-dioxido-3-oxoisothiazolidin-2-yl)benzoyl]amino}-2-hydroxybenzoate (39)] | > 30 µM |
| CC1CS(=O)(=O)N(c2ccc(C(=O)NCCC(=O)O)cc2)C1=O (configuration not stated) [N-[4-(4-methyl-1,1-dioxido-3-oxoisothiazolidin-2-yl)benzoyl]-b-alanine (41)] | > 30 µM |
| CC1CS(=O)(=O)N(c2ccc(C(=O)NCC(=O)O)cc2)C1=O (configuration not stated) [N-[4-(4-methyl-1,1-dioxido-3-oxoisothiazolidin-2-yl)benzoyl]glycine (40)] | > 30 µM |
